Measurements from article PMC12679848, “Sulphonamide derivatives with a triazine core as novel inducers of apoptosis and pyroptosis in glioblastoma multiforme cells” (Journal of Enzyme Inhibition and Medicinal Chemistry, 2025).

What was measured:
[1] = tested on: U-87 MG; test: Mitochondrial membrane potential (JC-1), U-87 MG; format: cell-based, human; details: 1.5 μM, 24 h
Procedure: (§1) The impact of the novel compounds on mitochondrial membrane potential (ΔΨm) was examined. […] In this study, the fluorochrome JC-1 was employed, which, in cells with normally functioning mitochondria, aggregates and accumulates in the hyperpolarized mitochondrial membrane, emitting a red colour. Conversely, when the membrane is damaged, JC-1 breaks down into monomers, emitting green fluorescence. […] For the U-87 MG cell line, these parameters were equal to 54.88 ± 8.36% and 56.13 ± 13.97% of the cell population.
(§2) JC-1 (1,1′,3,3′-Tetraethyl-5,5′,6,6′-tetrachloroimidacarbocyanine iodide) (BD Biosciences, San Diego, CA, USA), a lipophilic fluorochrome, was used to evaluate changes in mitochondrial membrane potential. After treatment, cancer cells at a concentration of 1 × 10^6 cells/mL were collected and rinsed twice with PBS. Then, 500 μL JC-1 working solution was added to each sample according to the manufacturer’s protocol. The samples were then incubated for 15 min at 37 °C in a CO2 incubator. After incubation, samples were washed twice with an assay buffer, and 500 μL of each sample was transferred to a BD FACSCanto II flow cytometer (Becton Dickinson Biosciences, San Jose, CA, USA) for analysis, with 10,000 events recorded per sample. Data were analysed using FACSDiva software version 6.1.3 (BD Biosciences Systems, San Jose, CA, USA).

[2] = tested on: caspase 9; test: Caspase 9 activation (FAM FLICA), A172; format: cell-based, human; details: A172, 1.5 μM, 24 h
Procedure: (§3) The activity of caspase 1, caspase 3/7, caspase 8, and caspase 9 was evaluated through the utilisation of FAM FLICA Caspase Assays (ImmunoChemistry Technologies, Bloomington, MN, USA), in accordance with the established protocols. Following treatment with the compounds, the cells were collected at a concentration of 1 × 10^6 cells/mL, washed twice with cold PBS, and resuspended in 290 μL of PBS. The subsequent step involved the addition of 10 μL of 30X FLICA solution, followed by incubation at 37 °C in the absence of light for one hour. Then, 2 ml of Apoptosis Wash Buffer was added, and the samples were washed twice. A 300 μL aliquot of each sample was transferred to a BD FACSCanto II flow cytometer (Becton Dickinson Biosciences, San Jose, CA, USA), where 10,000 events per sample were recorded. The resulting data was then analysed using FACSDiva software, version 6.1.3 (BD Biosciences Systems, San Jose, CA, USA).

[3] = tested on: caspase 1; test: Caspase 1 activation (FAM FLICA), U-87 MG; format: cell-based, human; details: 24 h
Procedure: Given the activation of oxidative stress and the occurrence of apoptotic cell death, we decided to verify whether other cell death pathways are triggered. The level of pyroptosis induction of the newly synthesised compounds MM118 and MM119 was determined by assessing the activation of caspase 1. This method facilitates the identification of cells undergoing pyroptosis by detecting the active form of caspase 1, which is a pivotal mediator in the pyroptotic pathway. The tested compounds were analysed on human A172 and U-87 MG glioblastoma multiforme cell lines using concentrations of 1 μM and 1.5 μM for a period of 24 h. […] Conversely, for compound MM119 in line A172, caspase 1 activation was 12.35 ± 2.00% at a concentration of 1 μM and 21.30 ± 1.57% at a concentration of 1.5 μM. For the U-87 MG line, the values were 12.25 ± 2.16% and 24.50 ± 2.11%, respectively.
as §3

[4] = tested on: A172; test: Mitochondrial membrane potential (JC-1), A172; format: cell-based, human; details: A172, 1.5 μM, 24 h
Procedure: as §1, §2

[5] = tested on: U-118 MG; test: MTT assay, U-118 MG; format: cell-based; details: Homo sapiens, 24 h of incubation, read-out: IC50 values ± SEM, MTT assay
Procedure: Human glioblastoma cell lines (A172 CRL-1620™, U-87 MG HTB-14™, U-118 MG HTB-15™, T98G CRL-1690™) and the mouse astrocyte cell line (C8-D1A CRL-2541™) were obtained from the American Type Culture Collection (ATCC, Manassas, VA, USA). The cell lines were cultured in complete medium: DMEM (Corning, Kennebunk, ME, USA) for C8-D1A and T98G, and EMEM (ATCC, Manassas, VA, USA) for A172, U-87 MG, U118MG. The media were supplemented with 10% foetal bovine serum (Eurx, Gdansk, Poland) and 1% penicillin-streptomycin solution (Corning, Kennebunk, ME, USA). Cells were cultured in cell culture flasks (Sarstedt, Numbrecht, Germany) at 37 °C in 5% CO2. For experiments, cells were washed with phosphate-buffered saline without calcium and magnesium (Corning, Kennebunk, ME, USA) and treated with 0.05% trypsin and 0.02% EDTA (Corning, Kennebunk, ME, USA). Cells were counted using a Sceptre 3.0 cell counter (Merck Millipore, Burlington, MA, USA) prior to seeding into plates. For 6-well plates, 5 x 10^5 cells/mL were seeded, while for 96-well plates (Sarstedt, Numbrecht, Germany), 1 x 10^5 cells/mL were seeded in 100 μL of the medium.
The cell lines were seeded in 96-well plates and cultured according to the methodology described in the previous section. Cells were then treated with the novel derivatives MM118 and MM119 and the reference compound temozolomide (TMZ) (Sigma-Aldrich, St. Louis, MO, USA) at concentrations of 0.1, 0.25, 0.5, 1.0, 2.5, 5.0, and 10.0 μM for 24 h. The MTT assay was performed using a solution of 3–(4,5-dimethyl-2-thiazolyl)-2,5-diphenyl-2H-tetrazolium bromide (Sigma-Aldrich, St. Louis, MO, USA) at a concentration of 5 mg/mL in phosphate-buffered saline without calcium and magnesium (Corning, Kennebunk, ME, USA). After 24 h incubation with test compounds, 10 μL MTT solution was added to each well, and cells were incubated for another 2 h at 37 °C. The cells were then lysed in 100 μL lysis buffer (25 mM HCl, 2% acetic acid, 3% DMF, and 5% SDS, adjusted to pH 4.7). Absorbance was measured at 570 nm using an Absorbance 96 microplate reader (Byonoy GmbH, Hamburg, Germany).

| Structure (SMILES) | Decreased ΔΨm (cell population) [1] [%] | Active caspase 9 (cell population) [2] | Active caspase 1 (cell population) ([3]; 1.0 μM) [%] | Active caspase 1 (cell population) ([3]; 1.5 μM) | Decreased ΔΨm (cell population) [4] [%] | IC50 [5] [nM] |
| --- | --- | --- | --- | --- | --- | --- |
| CCC(CO)NS(=O)(=O)c1ccc(-n2nc(C)c3nc4nnnn4nc32)cc1 (stereo in doubt) [MM119, N-(S)-(1-hydroxy-but-2-yl)-4-[7-methyl-5H-pyrazolo[4,3-e]tetrazolo[1,5-b][1]^,[2]^,[4]triazin-5-yl)]benzenesulfonamide] | 56.13 ± 13.97 | 25.50 ± 6.04% | 12.25 ± 2.16 | 24.50 ± 2.11% | 64.38 ± 1.90 | 670 ± 173 |
| CCC(CO)NS(=O)(=O)c1ccc(-n2nc(C)c3nc4nnnn4nc32)cc1 (stereo in doubt) [MM118, N-(R)-(1-hydroxy-but-2-yl)-4-[7-methyl-5H-pyrazolo[4,3-e]tetrazolo[1,5-b][1]^,[2]^,[4]triazin-5-yl)]benzenesulfonamide] | 54.88 ± 8.36 | 31.55 ± 8.07% | 17.15 ± 1.81 | 26.65 ± 2.28% | 70.43 ± 1.44 | 471 ± 191 |
| Cn1nnc2c(C(N)=O)ncn2c1=O [TMZ, temozolomide, reference compound] | 7.05 ± 2.85 | no significant differences | – | no significant differences | 20.25 ± 9.20 | > 10000 |
